The results in this text go back to patent US20200009088A1, “COMPOSITIONS AND METHODS FOR TREATING ANDROGEN-INDEPENDENT CANCER” (The Regents of the University of California, priority 2017, published 2020).

“Also recorded” adds a separate entry of the source.

Experiment [1] deals with T1, AR-V7 (Homo sapiens, UniProt P10275).
T1 sequence (P10275 1-644 isoform P10275-3): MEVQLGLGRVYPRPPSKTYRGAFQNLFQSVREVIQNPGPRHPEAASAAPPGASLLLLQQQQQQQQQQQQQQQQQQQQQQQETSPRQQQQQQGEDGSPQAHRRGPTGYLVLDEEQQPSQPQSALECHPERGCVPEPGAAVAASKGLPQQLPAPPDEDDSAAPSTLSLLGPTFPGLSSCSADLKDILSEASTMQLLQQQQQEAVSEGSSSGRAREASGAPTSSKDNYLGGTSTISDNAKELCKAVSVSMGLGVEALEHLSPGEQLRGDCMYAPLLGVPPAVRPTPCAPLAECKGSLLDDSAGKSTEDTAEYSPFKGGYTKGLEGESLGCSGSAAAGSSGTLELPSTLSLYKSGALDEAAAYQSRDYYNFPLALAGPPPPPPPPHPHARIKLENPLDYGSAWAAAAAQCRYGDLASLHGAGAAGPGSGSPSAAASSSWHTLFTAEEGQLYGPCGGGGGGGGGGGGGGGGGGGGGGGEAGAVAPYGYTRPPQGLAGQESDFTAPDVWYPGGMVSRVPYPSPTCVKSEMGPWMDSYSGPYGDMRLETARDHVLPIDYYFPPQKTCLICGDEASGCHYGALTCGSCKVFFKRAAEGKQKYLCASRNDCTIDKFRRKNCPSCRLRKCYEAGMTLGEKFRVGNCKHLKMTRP
Kind of experiment: Western blot of AR-V7 expression in CWR22Rv1 cell lysates. It is filed as cell-based. Also noted: endogenous in cells; host or cells: CWR22Rv1 prostate cancer cells (also grown as xenograft tumours). The settings on record: CWR22Rv1 cells, FIG. 2A. Here is the method: (§1) “AR-Variants” represents a combination of all forms of AR.
(§2) The effects of the synthetic small molecule modulators on AR and AR variant expression were determined. CWR22Ry1 prostate cancer cells were treated with different compounds. Protein lysates were analyzed for AR and AR variant expression.
(In general: In western blotting, separated proteins are transferred to a membrane and probed.)

Experiment [2] concerns CWR22Rv1 cells. The experiment in a line: Cell growth assay (cell numbers), CWR22Rv1. It is filed as cell-based. The settings on record: for cell growth, combination with bicalutamide: CWR22Rv1, analog 0.25 μM + bicalutamide 20 μM, 0, 3, 5 days; for cell growth, combination with enzalutamide: CWR22Rv1, analog 0.25 μM + enzalutamide 20 μM, 0, 3, 5 days; for cell growth, combination with enzalutamide / cell growth, combination with abiraterone: FIGS. 9, 11; for cell growth, niclosamide analog alone: CWR22Rv1, analog 0.25 μM, 0, 3, 5 days, FIGS. 9, 11, 12; for synergy with abiraterone in inhibiting cell growth: CWR22Rv1, analog 0.25 μM + abiraterone 5 μM; for cell growth, combination with abiraterone: CWR22Rv1, analog 0.25 μM + abiraterone 5 μM, 0, 3, 5 days; for synergy with enzalutamide in inhibiting cell growth: CWR22Rv1, analog 0.25 μM + enzalutamide 20 μM. The method, then:
DMSO treatment was used as a negative control. Total cell numbers were counted at 0, 3, and 5 days.
DMSO treatment was used as a negative control. Total cell numbers were counted at 0, 3, and 5 days. […]
The cell growth was determined at 3,5 days. […] The cell growth was determined at 3,5 days.

For experiment [3], the system named is AR. The experiment in a line: Western blot of AR expression in CWR22Rv1 cell lysates. It is filed as cell-based. The settings on record: CWR22Rv1 cells, FIG. 2A. The method, then:
as §1, §2

In experiment [4] the test system is C4-2B MDVR cells. The experiment in a line: Cell growth assay (cell numbers), C4-2B MDVR. It is filed as cell-based. The settings on record: for synergy with abiraterone in inhibiting cell growth / synergy with enzalutamide in inhibiting cell growth: C4-2BMDVR, FIG. 10; for synergy with abiraterone in inhibiting cell growth: analog 0.25 μM + abiraterone 5 μM; for synergy with enzalutamide in inhibiting cell growth: analog 0.25 μM + enzalutamide 20 μM; for cell growth: increasing doses of niclosamide/analogs, FIG. 6.

The subject of experiment [5] is CWR22Rv1 cells. Kind of experiment: Cell growth assay (cell numbers), CWR22Rv1. It is filed as cell-based. The settings on record: for cell growth: CWR22Rv1, 48 hours, increasing doses of niclosamide/analogs, FIG. 6.
For experiment [6], the system named is C4-2B AbiR cells. Kind of experiment: Cell growth assay (cell numbers), C4-2B AbiR. It is filed as cell-based. The settings on record: 0.5 μM + enzalutamide, 48 hours, FIG. 7C.
For experiment [7], the system named is C4-2-V7 cells. Kind of experiment: Cell growth assay (cell numbers), C4-2-V7. The experiment is classed as cell-based. The settings on record: C4-2-V7, 0.5 μM + enzalutamide, 48 hours, FIG. 7D.
For experiment [8], the system named is C4-2BMDVR cells. The experiment in a line: ELISA cell death (apoptosis) assay. It is filed as cell-based. The settings on record: FIG. 8. The method, then:
To further examine the anti-cancer effects of these compounds, an ELISA cell death assay was performed.
(In an ELISA, binding on a coated surface is turned into a signal by an enzyme label.)

Experiment [9] addresses T1, AR-V7. Kind of experiment: PSA-luc reporter in LNCaP cells co-transfected with AR-V7. The settings on record: LNCaP cells co-transfected with AR-V7, FIG. 4.
Description: The luciferase activity was then determined. * denotes p<0.05.
In addition, the effects on AR transcriptional activity were determined using PSA-luc as a reporter. LNCaP cells were cotransfected with PSA-luc together with or without AR-V7, and treated with the compounds.
Experiment [10] deals with PSA. Kind of experiment: PSA protein expression by ELISA in C4-2 cells overexpressing AR-V7. The experiment is classed as cell-based. The settings on record: C4-2-V7 cells, FIG. 3. Here is the method: PSA protein expression was determined by ELISA assay. * denotes p<0.05.

Consider `O=C(Nc1ccc([N+](=O)[O-])cc1Cl)c1cccc(Cl)c1` [Compound 1], for which the “AR-V7 (AR variant) expression” value in experiment [1] is reported as “no effect”. For the same compound, in [2] (FIG. 12), the “cell growth, combination with bicalutamide” value is on record as “not able to inhibit”. In [2], the “cell growth, combination with enzalutamide” value is on record as “nor the was the combination of these compounds with enzalutamide or abiraterone able to inhibit” and the “cell growth, niclosamide analog alone” value is given as “Neither of Compounds 1 or 34 alone were able to inhibit; also recorded: None of Compounds 1, 7, 30, 31, or 34 alone were able to inhibit”. Further, the AR expression result in experiment [3] is recorded as “no effect”. In experiment [4], the “synergy with abiraterone in inhibiting cell growth” value was “neither Compound 1 nor Compound 34 were able to synergize” and the “synergy with enzalutamide in inhibiting cell growth” value is on record as “neither Compound 1 nor Compound 34 were able to synergize”.
For `O=C(Nc1cc(C(F)(F)F)cc(C(F)(F)F)c1)c1cc(Cl)ccc1O` [Compound 11], in experiment [2], the “synergy with abiraterone in inhibiting cell growth” value was “able to synergize”; the “cell growth, combination with abiraterone” value is “able to significantly inhibit”; the “synergy with enzalutamide in inhibiting cell growth” value is listed as “able to synergize”; the “cell growth, combination with enzalutamide” value is “able to significantly inhibit”.
Regarding `O=C(Nc1cc(F)cc(F)c1)c1cc(Cl)ccc1O` [Compound 17], in [1], the “AR-V7 (AR variant) expression” value is recorded as “no effect”. In addition, in experiment [2], the “synergy with abiraterone in inhibiting cell growth” value is “but not Compounds 2 and 17, were able to synergize”; the “cell growth, combination with abiraterone” value was “nor was a combination of either of these compounds with enzalutamide or abiraterone able to inhibit”; the “cell growth, combination with enzalutamide” value is recorded as “nor was a combination of either of these compounds with enzalutamide or abiraterone able to inhibit”; the “cell growth, niclosamide analog alone” value is listed as “neither Compounds 2 nor Compound 17 alone were able to inhibit”. In addition, the AR expression result in experiment [3] was “no effect”.
Consider `C[C@]12CC[C@H](O)CC1=CC[C@@H]1[C@@H]2CC[C@]2(C)C(c3cccnc3)=CC[C@@H]12` [abiraterone, reference compound], for which the cell growth result in [5] is reported as “did not inhibit”; in [4] (C4-2B MDVR, 48 hours), “did not inhibit”.
In the case of `O=C(Nc1ccccc1Cl)c1cc(Cl)ccc1O` [Compound 8], the “AR-V7 (AR variant) expression” value in [1] is “no effect”. Also, in [3], the AR expression result was “no effect”.
As for `O=C(Nc1cc(C(F)(F)F)cc(C(F)(F)F)c1)c1cc(Cl)ccc1O` [Compound 5], in experiment [1], the “AR-V7 (AR variant) expression” value is listed as “inhibited”. Further, the AR expression result in experiment [3] is reported as “inhibited”.
Turning to `COC(=O)COc1ccc(Cl)cc1C(=O)Nc1ccc([N+](=O)[O-])cc1Cl` [Compound 34], the “AR-V7 (AR variant) expression” value in experiment [1] was “no effect”. For the same compound, the “cell growth, combination with bicalutamide” value in [2] (FIG. 12) is listed as “not able to inhibit”. For the same compound, in experiment [2], the “cell growth, combination with enzalutamide” value was “nor the was the combination of these compounds with enzalutamide or abiraterone able to inhibit” and the “cell growth, niclosamide analog alone” value is “Neither of Compounds 1 or 34 alone were able to inhibit; also recorded: None of Compounds 1, 7, 30, 31, or 34 alone were able to inhibit”. The AR expression entry in experiment [3] is given as “no effect”. Besides, in experiment [4], the “synergy with abiraterone in inhibiting cell growth” value is recorded as “neither Compound 1 nor Compound 34 were able to synergize” and the “synergy with enzalutamide in inhibiting cell growth” value is “neither Compound 1 nor Compound 34 were able to synergize”.
Turning to `CNC(=O)c1ccc(N2C(=S)N(c3cnc(C#N)c(C(F)(F)F)c3)C(=O)C23CCC3)cc1F` [ARN509, reference compound], the cell growth result was “did not inhibit” in [5] and “did not inhibit” in [4] (C4-2B MDVR, 48 hours).
Turning to `CNC(=O)c1ccc(N2C(=S)N(c3ccc(C#N)c(C(F)(F)F)c3)C(=O)C2(C)C)cc1F` [enzalutamide, reference compound], the cell growth result was “did not inhibit” in experiment [5] and “did not inhibit” in experiment [4] (C4-2B MDVR, 48 hours). For the same compound, the “cell growth, antiandrogen alone” value in [2] (CWR22Rv1, enzalutamide 20 μM or abiraterone 5 μM, 0, 3, 5 days, FIG. 9) was “resistant”.
Regarding `O=C(O)COc1ccc(Cl)cc1C(=O)Nc1ccc([N+](=O)[O-])cc1Cl` [Compound 29], the “AR-V7 (AR variant) expression” value in experiment [1] is given as “no effect”. In addition, the AR expression entry in experiment [3] was “no effect”.
On to `CC(C)(C)OC(=O)COc1ccc(Cl)cc1C(=O)Nc1ccc([N+](=O)[O-])cc1Cl` [Compound 35], for which, in experiment [1], the “AR-V7 (AR variant) expression” value was “no effect”. For the same compound, the AR expression result in [3] is reported as “no effect”.
Turning to `O=C(Nc1ccc([N+](=O)[O-])cc1Cl)c1ccccc1O` [Compound 2], the “AR-V7 (AR variant) expression” value in experiment [1] is listed as “no effect”. In experiment [2], the “synergy with abiraterone in inhibiting cell growth” value was “but not Compounds 2 and 17, were able to synergize”; the “cell growth, combination with abiraterone” value is recorded as “nor was a combination of either of these compounds with enzalutamide or abiraterone able to inhibit”; the “cell growth, combination with enzalutamide” value is on record as “nor was a combination of either of these compounds with enzalutamide or abiraterone able to inhibit”; the “cell growth, niclosamide analog alone” value is listed as “neither Compounds 2 nor Compound 17 alone were able to inhibit”. The AR expression result in experiment [3] was “no effect”.
`CCC(=O)Oc1ccc(Cl)cc1C(=O)Nc1ccc([N+](=O)[O-])cc1Cl` [Compound 30]: the “cell proliferation, combination with enzalutamide (MDV)” value (shortened to “cell proliferation, combination”) in experiment [5] (CWR22Rv1, 0.5 μM + enzalutamide, 48 hours, FIG. 7A) is “further inhibited”. In addition, the “AR-V7 (AR variant) expression” value in experiment [1] is “inhibited”. For the same compound, the “cell proliferation, combination” value in experiment [6] is recorded as “further inhibited”. The “cell proliferation, combination” value in [7] is “further inhibited”. Moreover, in experiment [2], the “synergy with abiraterone in inhibiting cell growth” value is “able to synergize”; the “cell growth, combination with abiraterone” value was “significantly inhibited”; the “synergy with enzalutamide in inhibiting cell growth” value was “able to synergize”; the “cell growth, combination with enzalutamide” value is “significantly inhibited”. Moreover, the “cell growth, niclosamide analog alone” value in experiment [2] is listed as “None of Compounds 1, 7, 30, 31, or 34 alone were able to inhibit”. Moreover, the “cell growth, combination with bicalutamide” value in experiment [2] (FIG. 12) was “able to significantly inhibit”. Also, the “synergy with bicalutamide in inhibiting cell growth” value in [2] (CWR22Rv1, analog 0.25 μM + bicalutamide 20 μM, FIG. 12) is “able to synergize”. The cell apoptosis result in experiment [8] (compound alone, analogs compared with niclosamide) was “further enhanced”. In [8] (with enzalutamide), the “apoptotic cell death, combination with enzalutamide (MDV)” value is “further increased”. Besides, the “AR-V7 mediated PSA-luc activity” value in [9] is reported as “inhibited”. The AR expression entry in [3] was “inhibited”. Further, the “cell proliferation, combination” value in experiment [4] (C4-2B MDVR, 0.5 μM + enzalutamide, 48 hours, FIG. 7B) is “further inhibited”. Moreover, in experiment [4], the “synergy with abiraterone in inhibiting cell growth” value is “able to synergize” and the “synergy with enzalutamide in inhibiting cell growth” value is listed as “able to synergize”. In addition, the PSA expression result in experiment [10] (compound alone, ELISA) is recorded as “inhibited”. In addition, the “enzalutamide-mediated PSA inhibition” value in experiment [10] (in presence of enzalutamide (MDV)) is given as “further enhanced”.
